Data as given in US12576033B2, “Spray-dried formulation of a pyridazinone TRPC5 inhibitor” (GFB (ABC), LLC, priority 2019, dated 2026).

Columns and labels:
Assay type in all cases: physicochemical
[1] = Visual solubility in common spray drying solvents
Protocol: Organic solubility of Compound 1 was determined visually in common spray drying solvents (Table 10) and Compound 1 lot AC5313-058P1 was utilized. […] When removed from heat API crashes out after 5 minutes. Solution (% w/w) was then prepared at 2.0% Compound 1 and heated to 40° C. where solids dissolved immediately. The 2.0% solution was then removed from heat where API appeared to crash out after ˜2 hours.

[2] = MDSC thermal analysis (Tg)
Protocol: MDSC was performed using a TA Instruments Discovery DSC2500 differential scanning calorimeter equipped with a TA instruments Refrigerated Cooling System 90. MDSC was used to measure thermodynamic events and characteristics of Compound 1 API and subsequent SDIs. Events observed include the glass transition temperature (Tg), cold crystallization (Tc, defined as a crystallization event at a temperature lower than the melt temperature) and melting temperature (Tm). SDI samples were placed in non-hermetic aluminum pans and heated at a constant rate of 2.0° C./min over a 0-200° C. temperature range. The system was purged by nitrogen flow at 50 mL/min to ensure inert atmosphere through the course of measurement. […] The resulting amorphous API was analyzed by modulated DSC up to 265° C. […]
Thermal properties including melting temperature (Tm), glass transition temperature (Tg) and crystallization temperature (Tc) of Compound 1 crystalline Form H (anhydrous/solvate free) were measured by MDSC. […] The Tg was measured via a melt-quench technique, heating Compound 1 past its melting temperature and rapidly cooled in liquid nitrogen to trap the molten material in an amorphous state. The resulting sample was analyzed by MDSC and a Tg of 130° C. was observed (FIGS. 1A-B/Table 9) with no observed crystallization peaks or clear melting events in the subsequent amorphous ramp up to 275° C. […]

[3] = Two stage gastric transfer non-sink dissolution test (0.1N HCl/FaSSIF)
Protocol: In-vitro drug dissolution performance for each SDI is evaluated by Patheon's two stage ‘gastric transfer’ non-sink dissolution test (Table 8), which simulates pH and bile salt concentrations for both gastric and intestinal exposure in a simple to perform assay. Pre-weighed SDI powder is briefly suspended in media (e.g. by 10 sec vortex mixing with 4.0 mL media) and transferred to a pre-heated (37° C.) volume of 50 mL of 0.1N HCl(aq) (simulated gastric fluid or SGF, pH˜1.0, without pepsin or bile salts), in a USP Type 2 mini-vessel (100 mL total vessel volume) while stirring (paddles) at 100 rpm. After 30 minutes of gastric pH exposure, an equal volume of PBS buffered, 2× concentrated fasted-state simulated intestinal fluid (FaSSIF) is added to the SGF, resulting in a final pH of 6.8 in FaSSIF (100 mM PBS containing 2.24 mg/mL SIF powder (original) (Biorelevant Inc.) in a total volume of 100 mL. Aliquiots (1.0 mL) of dissolution media are taken at selected time-points before and after the simulated gastric transfer, spun-down (13000 rpm) to pellet out undissolved solids, and the supernatant sampled and further diluted in an appropriate diluent to determine API total drug concentration (e.g. free and colloidal/polymer-bound drug in solution) utilizing a suitable HPLC method. Additional centrifugation and filtration was performed using 10K molecular weight cutoff filters to remove polymer bound aggregates and colloids. The resulting filtrate of free drug consists of drug in solution and micelles. The volume of FaSSIF added is adjusted to account for the sampling volume removed prior to gastric transfer (typically 4×1.0 mL). Initial Compound 1 API measurements and SDI dissolution samples were determined utilizing HPLC.
The dissolution performance of the SDI material and crystalline Compound 1 was tested in Patheon's non-sink dissolution test (FIG. 6 and Table 15). The dissolution test is used to measure the supersaturation of drug above the bulk crystalline Compound 1 solubility in biorelevant intestinal media (FaSSIF) after 30 minutes exposure to a low-pH environment. […]

[4] = 60:40 DCM:Methanol, clear solution when heated to 40° C.
[5] = 80:20 DCM:Methanol, clear solution when heated to 40° C.
[6] = 90:10 DCM:Methanol, clear solution when heated to 40° C.

## O=c1[nH]ncc(N2CCc3c(ncnc3Oc3ccc(F)cc3C(F)(F)F)C2)c1Cl [Compound 1, 4-chloro-5-(4-(4-fluoro-2-(trifluoromethyl)phenoxy)-5,8-dihydropyrido[3,4-d]pyrimidin-7(6H)-yl)pyridazin-3(2H)-one]
[1]; 50:50 DCM:Methanol
  Compound 1 Visual Solubility: >1.0 wt .%
  Observation (visual solubility): Insoluble
[1]; [4]
  Compound 1 Visual Solubility: 2.0-3.0 wt .%
  Observation (visual solubility): Soluble^1
[1]; [5]
  Compound 1 Visual Solubility: 1.0-1.5 wt .%
  Observation (visual solubility): Soluble^1
[1]; [6]
  Compound 1 Visual Solubility: 1.0-1.5 wt .%
  Observation (visual solubility): Soluble^1
[1]; 95:5 Acetone:Water
  Compound 1 Visual Solubility: >1.0 wt .%
  Observation (visual solubility): Insoluble
[1]; Acetone
  Compound 1 Visual Solubility: >1.0 wt .%
  Observation (visual solubility): Insoluble
[1]; Methanol
  Compound 1 Visual Solubility: >1.0 wt .%
  Observation (visual solubility): Insoluble
[1]; Methlyene Chloride (DCM)
  Compound 1 Visual Solubility: >1.0 wt .%
  Observation (visual solubility): Insoluble
[1]; Methyl Ethyl Ketone (MEK)
  Compound 1 Visual Solubility: >1.0 wt .%
  Observation (visual solubility): Insoluble
[1]; Tetrahydrofuran (THF)
  Compound 1 Visual Solubility: >1.0 wt .%
  Observation (visual solubility): Insoluble
[1]; heated (40° C.) 60:40 DCM:Methanol, % w/w
  maximum active loading in solution: 2.0%
[2]; amorphous API by melt-quench, MDSC
  Tg: 130 °C
[2]; indicating moderate physical stability
  Tm/Tg ratio: 1.32
[3]; area under the curve after transfer to FaSSIF from 35 to 210 minutes
  Total Drug AUC35-210 FaSSIF: 600 min * μgA/mL
[3]; drug concentration at 180 minutes after transfer to FaSSIF
  Total Drug C210: 3.5 μgA/mL
[3]; non-sink dissolution, FaSSIF
  Increase in AUC over API AUC: 0.4
